Measured values published in US20080274202A1, “Compositions and Method for Brain Specific Targeted Delivery of Therapeutic Agents” (priority 2005, published 2008).

Test system: HOTCs
Assay: HOTC maintenance in serum-free media with antibiotic
Format: cell-based
Details: by 21 DIV, in SFM
Protocol: HOTCs were prepared and maintained by initial incubation in serum-based media followed by transfer to a serum-free media (SFM) at 4 days in vitro (DIV). The transfer from serum-containing medium to SFM prevented neuronal loss from occurring after two weeks of culture (stability was measured by neuron-specific nuclear protein (NeuN)-based western blots), and prevented glial activation in the HOTCs. SFM contained Neurobasal medium ((96%) from Invitrogen) supplemented to 42 mM glucose, 1 mM glutamine (from Sigma), 2% B27 supplement, 10 μg/mL gentamicin and […] Fungizone (from Invitrogen). […] The SFM was changed twice a week and the HOTCs were incubated at 36° C. with 5% CO2-balance air. Slices were maintained to 21 DIV to allow cultures to mature, and used from 21-30 DIV.

**Q.** penicillin was tested. Which “CA3 field potentials from dentate gyrus stimulation” value did it give?
**A.** no CA3 field potentials were seen

**Q.** What about the “pyramidal cell survival in HOTCs” value of the same substance?
**A.** most pyramidal cells were dead
